Assay in all cases: inhibition of tumour cell growth, NCI panel, 48 h
The test system of experiment [1] is U251 CNS.
In experiment [2] the test system is SF-295 CNS.
The test system of experiment [3] is LOX IMVI melanoma.
Experiment [4] has as its system SK-MEL-5 melanoma.
For experiment [5], the system named is HCT-15 colon.
The test system of experiment [6] is SK-MEL-28 melanoma.
Experiment [7] relates to MOLT-4 leukemia.
Experiment [8] deals with OVCAR-5 ovarian.
In experiment [9] the test system is HL-60(TB) leukemia.
The subject of experiment [10] is OVCAR-3 ovarian.

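Cells were grown in 96-well plates and exposed to each compound for 48 hours at five concentrations; endpoints were interpolated linearly between bracketing concentrations, or set to the highest concentration if not reached. GI50 is the concentration that inhibits growth by half. TGI is the concentration that stops growth completely.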

As to `CCN(CC)[C@@H]1c2cc3c(cc2C(c2cc(OC)c(O)c(OC)c2)C2C(=O)CO[C@@H]21)OCO3` (some centres not stated), the TGI in [1], in experiment [2], in [3], in experiment [4], in [5] and in [6] was > 100 µM throughout. In addition, the TGI in [7], in experiment [8] and in [9] was > 100 µM in each case.

Turning to `COC(=O)/C=C/c1cc(OC)c2c(c1)[C@@H](C(=O)OC)[C@H](c1ccc(OC)c(OC)c1)O2`, the GI50 is 1.38 µM in experiment [1]; 0.715 µM in experiment [2]; 0.771 µM in experiment [3]; 0.901 µM in experiment [4]; 0.486 µM in experiment [5]; 26.4 µM in [6]. In addition, the values for the GI50 in experiment [7] and in [8] were 1.73 µM and 5.23 µM, respectively. For the same compound, the TGI in experiment [1], in experiment [2], in [3], in experiment [4], in experiment [5] and in experiment [6] was > 100 µM throughout. Further, the TGI in [7] and in experiment [8] was > 100 µM each time.

For the compound `COc1cc(C2C(Cl)C(=O)N2NC(=O)c2ccccc2O)cc(OC)c1OC` (configuration not stated), the TGI in experiment [10] is > 10 µM; in experiment [1], > 10 µM; in experiment [2] it was 8.43 µM; in experiment [3] it was > 10 µM; in [4], > 10 µM; in [7], > 10 µM. Besides, the values for the TGI in experiment [8] and in experiment [9] were > 10 µM and 5.96 µM, respectively.

Consider `O=C1CCC(=O)C12CCc1ccccc12`, for which the TGI in experiment [10], in experiment [1], in experiment [2], in experiment [3], in [5] and in experiment [6] was > 100 µM throughout. Besides, the TGI in experiment [9] was > 100 µM.

With `COC(=O)c1cccc(COc2ccc([N+](=O)[O-])cc2Cl)c1`, the TGI in experiment [10], in experiment [1], in experiment [2], in [3], in experiment [4] and in experiment [5] was > 100 µM throughout. Also, the TGI in experiment [6], in [7] and in experiment [8] was > 100 µM each time.

As to `COc1ccc(/C=C\c2cc(OC)c(OC(C)=O)c(OC)c2)cc1`, the TGI in experiment [10] is > 100 µM; in experiment [1] it was 23.1 µM; in experiment [4], 20.5 µM; in experiment [5], 97 µM; in experiment [6], 26.2 µM; in [7], 38.6 µM. Further, the TGI in experiment [8] turned out to be 88.8 µM.

For `CSc1nnc2n1-c1ccccc1SCC2`, the TGI in experiment [10], in experiment [1], in experiment [2], in experiment [3], in [5] and in [6] was > 100 µM each time. Besides, the TGI in [7] and in experiment [9] was > 100 µM each time.

As for `Fc1cccc(C2SCc3nc4ccccc4n32)c1` (configuration not stated), the TGI was > 100 µM in [10]; > 100 µM in [2]; 29.4 µM in [4]; > 10 µM in [6]; > 100 µM in [7]; 79.3 µM in [8]. Also, the TGI in experiment [9] turned out to be 62.8 µM.

Consider `Cc1nc(N(C)C)nc(-c2cccc(-c3ccn(CCN(C)C)n3)c2)c1C`, for which the GI50 in [10] is > 20 µM; in experiment [1], > 20 µM; in experiment [3], > 20 µM; in experiment [4], 15.9 µM; in experiment [5] it was > 20 µM; in experiment [6], > 20 µM. The GI50 in experiment [7], in experiment [8] and in [9] was > 20 µM in each case. Also, the TGI in experiment [10], in [1], in experiment [3], in experiment [4], in experiment [5] and in [6] was > 20 µM in each case. Further, the TGI in experiment [7], in [8] and in [9] was > 20 µM throughout.

With `O=C(O)c1cccc(F)c1C(=O)c1ccc2ccccc2c1`, the TGI in experiment [10], in [1], in experiment [2], in experiment [3], in experiment [5] and in [6] was > 100 µM throughout. The TGI in experiment [8] and in experiment [9] was > 100 µM in each case.

Consider `OC(c1cc2c(Cl)cc(Cl)cc2c2cc(C(F)(F)F)ccc12)C1CCCCN1` (configuration not stated), for which the GI50 in experiment [10] was 1.91 µM; in experiment [4], 1.73 µM; in [6], 1.96 µM; in experiment [8] it was 1.58 µM; in experiment [9] it was 1.85 µM. For the same compound, the TGI was found to be 3.52 µM in experiment [10]; 3.12 µM in experiment [4]; 3.62 µM in [6]; 3.15 µM in experiment [8]; 3.71 µM in [9].

Regarding `Cc1cc(=O)[nH]c2c1C(=O)C(=O)C=C2`, the GI50 in experiment [1] is 23.8 µM; in experiment [2], 24.1 µM; in experiment [4] it was 16.7 µM; in [5] it was 60.5 µM; in experiment [6], > 100 µM; in [7], 39.5 µM. For the same compound, in experiment [8], the GI50 was 41.3 µM. The TGI was 63.5 µM in experiment [1]; 52.8 µM in experiment [2]; 36.9 µM in [4]; > 100 µM in experiment [5]; > 100 µM in [6]; > 100 µM in [7]. The TGI in experiment [8] was > 100 µM.

Turning to `NCCCSCC(=O)O`, the TGI in experiment [10], in experiment [1], in [2], in experiment [4], in [5] and in [6] was > 100 µM throughout. Also, the TGI in [7] and in experiment [8] was > 100 µM in each case.

Consider `O=C(c1ccccc1)C(c1ccccc1)C1(O)C(=O)Nc2ccc(Br)cc21` (configuration not stated), for which the TGI in experiment [10], in experiment [1], in [2], in [5], in [6] and in experiment [7] was > 100 µM in each case. Moreover, the results for the TGI in experiment [8] and in experiment [9] were > 100 µM and 48.2 µM, respectively.

Values taken from PubChem BioAssay (NCI).
